A short description of this data set: In vivo local retention experiment of ^131I-HAMA microgel (SPECT gamma imaging after injection into femoral muscle). As to conditions: rat. The procedure:
An experiment was performed to confirm the distribution of ^131I and how long the ^131I-HAMA microgel was maintained at the site injected into the body. After injecting 0.2 mL of a solution of Na^131I and ^131I-HAMA microgel (1 mCi/mL) dispersed in PBS into the femoral muscle of the rat, gamma images were obtained over time with the SPECT imaging system (Infinia Hawkeye 4, GE Healthcare, USA). Within 30 minutes immediately after injection, the radioactivity at the injection site was measured with a counter per second in a dynamic mode. After 30 minutes, an image of the whole rat injected with ^131I over time was obtained in static mode, and gamma counters of major tissues such as the injection site, thyroid gland and stomach were measured.

With `[131I-].[Na+]` [^131I solution, Na^131I], the “radiation intensity over time in vivo” value (after injection into femoral muscle) is “decreased rapidly”. For the same molecule, the “time to flow to the whole body (SPECT image)” value (intramuscular injection, 200 μCi) stood at 30 min. Also, under “within 30 minutes after injection”, the “spreading rate in the body from the injection site (dynamic imaging)” value is given as “faster than that of the ^131I-HAMA microgel”. Moreover, the “migration of ^131I to other tissues (gamma counts)” value (injection site, thyroid gland, stomach, bladder) is “measured in the thyroid gland, stomach, and bladder in addition to the injection site”.

Values taken from patent US20220118124A1, “R[…]-LABELED, PHOTO-CRO[…], AND PREPARATION METHOD THEREFOR” (SNVIA CO., LTD., priority 2019, published 2022).
